From BindingDB's records for doi:10.7270/Q2TX3CTT (Broad Institute, 2010)
Counter-ions that a name gives are not always drawn.

Target: Glycogen synthase kinase-3 beta (Homo sapiens, UniProt P49841)
Experiment: GSK3beta kinase inhibitor potency, dose response, biochemical, luminescence, cell-free homogeneous, retest (AID 434954)

Glycogen synthase kinase-3 beta, sequence (P49841 whole entry): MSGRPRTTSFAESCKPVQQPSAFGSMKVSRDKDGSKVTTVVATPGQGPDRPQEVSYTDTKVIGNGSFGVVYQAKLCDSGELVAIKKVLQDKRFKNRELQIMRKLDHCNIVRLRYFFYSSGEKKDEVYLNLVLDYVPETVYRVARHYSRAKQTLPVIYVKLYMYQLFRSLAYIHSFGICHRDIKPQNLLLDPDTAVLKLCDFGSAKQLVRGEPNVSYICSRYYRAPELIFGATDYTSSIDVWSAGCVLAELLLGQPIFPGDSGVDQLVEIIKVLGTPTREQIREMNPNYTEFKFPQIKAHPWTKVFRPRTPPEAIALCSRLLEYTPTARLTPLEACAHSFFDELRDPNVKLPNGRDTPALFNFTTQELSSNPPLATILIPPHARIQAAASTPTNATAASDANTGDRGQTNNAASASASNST

Compound	EC50 [µM]
O=C(Nc1cccc(NC(=O)c2ccc3c(c2)OCO3)c1)c1ccccc1 [MLS000706176]	> 300
Cc1ccsc1CN=Nc1ncnc2nc[nH]c12 [N-[(3-methyl-2-thiophenyl)methylideneamino]-7H-purin-6-amine]	9
NC(=O)c1ncn([C@@H]2O[C@H](CO)[C@@H](O)[C@H]2O)c1O [1-[(2R,3R,4S,5R)-5-(hydroxymethyl)-3,4-bis(oxidanyl)oxolan-2-yl]-5-oxidanyl-imidazole-4-carboxamide]	> 300
CCCN1CCN(CCCNC(=O)Cn2nc(C)n3c(cc4cc(OC)ccc43)c2=O)CC1 [MLS001110985]	> 300
NC(=O)c1c(NC(=O)CN2CCCC2)sc2c1CCCC2 [2-(2-Pyrrolidin-1-yl-acetylamino)-4,5,6,7-tetrahydro-benzo[b]thiophene-3-carboxylic acid amide]	> 300
Nc1nonc1-n1nnc(C(=O)NN=Cc2ccccc2F)c1-c1cccs1	14.4
Nc1nnnn1/N=C/c1ccc(N2CCCCC2)c([N+](=O)[O-])c1 [SMR000174985]	> 300
COC(=O)c1sc(=S)n(Cc2ccccc2)c1C [methyl 3-benzyl-4-methyl-2-sulfanylidene-1,3-thiazole-5-carboxylate]	> 300
COc1ccc(NC(=O)Nc2ccccn2)cc1OC [N-(3,4-dimethoxyphenyl)-N'-2-pyridinylurea]	> 300
Cc1cc(-c2onc3ccc(Cl)cc23)ccc1O [(4E)-4-(5-chloro-1H-2,1-benzoxazol-3-ylidene)-2-methylcyclohexa-2,5-dien-1-one]	> 300
COCCn1c(SCC(=O)NC(C)c2ccccc2)nc2ccccc21 (centres undefined) [SMR000590006]	> 300
COc1ccc2oc3cc(C)[n+]([O-])c(-c4ccc(Cl)cc4)c3c2c1 [MLS000588178]	12.7
CC(=O)c1cccc(Nc2nc(-c3ccccc3)nc3ccccc23)c1 [SMR000516691]	> 300
NC(=NNC(=O)c1ccc(Cl)cc1)c1cnccn1 [N-[(Z)-[azanyl(pyrazin-2-yl)methylidene]amino]-4-chloranyl-benzamide]	> 300
Cc1nc(Nc2ccccc2)sc1C [4,5-dimethyl-N-phenyl-1,3-thiazol-2-amine]	> 300
O=C(COc1ccccc1[N+](=O)[O-])NN=Cc1ccc(OC(=O)c2ccco2)cc1 [4-((E)-{2-[2-(2-nitrophenoxy)acetyl]hydrazono}methyl)phenyl 2-furoate]	14.7
O=Cc1cn(-c2ccccc2)nc1-c1ccc(F)cc1 [3-(4-fluorophenyl)-1-phenyl-1H-pyrazole-4-carbaldehyde]	> 300
CN(C)c1nc2c(N)ncnc2n1[C@H]1O[C@@H](CO)[C@H](O)[C@@H]1O [MLS001181978]	> 300
COc1cccc2cc(C(=O)OC(C)C(=O)c3ccc(C)cc3)c(=O)oc12 (centres undefined)	> 300
N#Cc1c(N)nc(C(C#N)C#N)c(C#N)c1-c1ccccc1	19.2
Cc1ccc(C(=O)c2coc3ccc(O)c(Cl)c23)cc1 [(4-chloro-5-hydroxy-3-benzofuranyl)-(4-methylphenyl)methanone]	> 300
O=C(CN1C(=O)CCC1=O)Nc1ccc2c3c(cccc13)CC2 [N-(1,2-dihydroacenaphthylen-5-yl)-2-(2,5-dioxo-1-pyrrolidinyl)acetamide]	> 300
c1ccc(CSc2ccc3nnc(-c4cccnc4)n3n2)cc1 [MLS000724858]	> 300

Compound	EC50 [µM]
CN(C)CC(=O)N1c2ccccc2Sc2ccc(Cl)cc21	> 300
O=C(OCCCOC(=O)c1ccc(O)cc1)c1ccc(O)cc1 [4-hydroxybenzoic acid 3-[(4-hydroxyphenyl)-oxomethoxy]propyl ester]	1.84
COc1cccc(C(CC(=O)NCc2ccco2)NS(=O)(=O)c2ccc(C)cc2)c1OC (centres undefined) [3-(2,3-dimethoxyphenyl)-N-(2-furylmethyl)-3-{[(4-methylphenyl)sulfonyl]amino}propanamide]	> 300
O=C1/C(=C/C=C/c2ccccc2)Oc2c1ccc(O)c2CN1CCN(CCO)CC1 [SMR000415785]	> 300
COc1ccc(C=C2SC(NCc3ccccc3)=NC2=O)cc1 [(5Z)-5-[(4-methoxyphenyl)methylidene]-2-[(phenylmethyl)amino]-1,3-thiazol-4-one]	7.01
COc1cccc(/C=C2/Sc3ccc(C(=O)NCCN4CCCCCC4)cc3NC2=O)c1 [MLS001030753]	94.6
C[C@]12C=CC(=O)C=C1CC[C@@H]1C2C(O)C[C@@]2(C)C1CC[C@]2(O)C(=O)COC(=O)CCC(=O)O (stereo partly drawn) [4-[2-[(8S,10R,11S,13S,17R)-11,17-dihydroxy-10,13-dimethyl-3-oxo-7,8,9,11,12,14,15,16-octahydro-6H-cyclopenta[a]phenanthren-17-yl]-2-oxoethoxy]-4-oxobutanoic acid]	> 300
CC(C)Nc1nc(-c2cccnc2)nc(-c2ccccc2)c1C#N [4-phenyl-6-(propan-2-ylamino)-2-pyridin-3-yl-pyrimidine-5-carbonitrile]	> 300
N#Cc1cccc(-c2nnc(SCc3ccccc3C#N)o2)c1 [SMR000006352]	> 300
COc1ccc(C2CC(=O)C3C(=Nc4ncnn4C3c3ccccc3C)C2)cc1 (centres undefined)	> 300
Cc1ccc(C(=O)O/N=C(\N)c2ccccn2)c(Cl)c1 [MLS001206211]	26.2
Cc1ccc2c(c1)C1CN(C)CCC1N2C(=O)Nc1cccc(Cl)c1 (centres undefined) [MLS000565326]	> 300
O=C(COc1ccc(S(=O)(=O)N2CCCC2)cc1Cl)Nc1ccc2c(c1)OCO2 [MLS000052177]	> 300
COc1ccc(C(=O)NC(=S)NC2CCCCC2)cc1	> 300
Nc1nonc1-n1nnc(C(=O)NN=Cc2cccc(Cl)c2)c1CN1CCCC1	5.25
Cc1cc(NC(=O)c2noc3c2CCc2ccccc2-3)n(-c2ccccc2)n1 [MLS000116423]	> 300
COc1ccc(-c2nn(-c3ccccc3)cc2C=O)cc1[N+](=O)[O-] [MLS001163277]	> 300
COC(=O)c1nnn(-c2nonc2N)c1CSc1ccccn1 [1-(4-amino-1,2,5-oxadiazol-3-yl)-5-[(2-pyridinylthio)methyl]-4-triazolecarboxylic acid methyl ester]	21.1
COc1cccc(-n2sc3c(c2=S)-c2cc(OC)ccc2NC3(C)C)c1	> 300
CCN1C(=O)/C(=N\NC(=O)C(O)c2ccccc2)c2ccccc21 (centres undefined) [SMR000414657]	32.4
CC1CCCCN1c1ncnc2ccccc12 (centres undefined) [4-(2-Methyl-piperidin-1-yl)-quinazoline]	> 300
c1ccc2c(c1)oc1c(NCCCn3ccnc3)ncnc12	> 300
CCCNCC1COc2ccccc2O1 (centres undefined) [2,3-dihydro-1,4-benzodioxin-3-ylmethyl(propyl)amine;hydrochloride]	> 300

Compound	EC50 [µM]
CCN(CC)Cc1c(C(=O)NN=Cc2cccnc2)nnn1-c1nonc1N [1-(4-amino-1,2,5-oxadiazol-3-yl)-5-(diethylaminomethyl)-N-(3-pyridinylmethylideneamino)-4-triazolecarboxamide]	9.17
COc1ccc(-n2c(=O)c3c4c(sc3n3c(S)nnc23)CCCC4)cc1 [1-mercapto-4-(4-methoxyphenyl)-6,7,8,9-tetrahydro[1]benzothieno[3,2-e][1,2,4]triazolo[4,3-a]pyrimidin-5(4H)-one]	> 300
CC1CC(=O)Nc2ccc([N+](=O)[O-])cc2N1C (centres undefined) [SMR000207335]	> 300
Cc1ccc(SCC(=O)Nc2ccc3c(c2)C(=O)NC3=O)cc1 [N-[1,3-bis(oxidanylidene)isoindol-5-yl]-2-(4-methylphenyl)sulfanyl-ethanamide]	> 300
COC(=O)c1nnn(-c2nonc2N)c1-c1cccs1 [1-(4-amino-1,2,5-oxadiazol-3-yl)-5-thiophen-2-yl-4-triazolecarboxylic acid methyl ester]	26.2
Cc1ccc(C(C(=O)NC2CCCCC2)N(CC2CCCO2)C(=O)CNC(=O)c2cccs2)cc1 (centres undefined) [N-[2-[[2-(cyclohexylamino)-1-(4-methylphenyl)-2-oxoethyl]-(oxolan-2-ylmethyl)amino]-2-oxoethyl]thiophene-2-carboxamide]	> 300
CCCc1cc(=O)[nH]c2nnc(SCC(=O)Nc3nccs3)n12 [2-[(7-oxidanylidene-5-propyl-1H-[1,2,4]triazolo[4,3-a]pyrimidin-3-yl)sulfanyl]-N-(1,3-thiazol-2-yl)ethanamide]	> 300
COCCNc1nc(N)c([N+](=O)[O-])c(NCCO)n1 [2-[[6-azanyl-2-(2-methoxyethylamino)-5-nitro-pyrimidin-4-yl]amino]ethanol]	28.5
Cc1ccc(C(=O)COC(=O)c2ccc(O)cc2)cc1	> 300
O=c1cc(-c2ccccc2Cl)oc2c([N+](=O)[O-])c(O)cc(O)c12 [MLS000518336]	2.58
CSc1ncc(C(=O)Nc2ccccc2C)c(C)n1	> 300
O=C(NCCCN1CCCC1=O)c1ccc2c(c1)NC(=O)c1ccccc1S2 [MLS000522698]	> 300
CN(C)CCCNc1ccc(-c2cc(Nc3cccc(Cl)c3)ncn2)cn1 [SMR000463569]	12.2
O=C(NN=Cc1ccccn1)c1cccnc1 [Nicotinic acid [1-pyridin-2-yl-meth-(E)-ylidene]-hydrazide]	> 300
Cn1nnc2sc3c(c2c1=O)CCCC3 [MLS000557299]	23.3
COc1cc2ncnc(Nc3ccc4c(c3)OCO4)c2cc1OC	> 300
Cn1nc(-c2ccccn2)nc2c(=O)n(C)c(=O)nc1-2 [1,6-dimethyl-3-(2-pyridinyl)pyrimido[5,4-e][1,2,4]triazine-5,7(1H,6H)-dione]	46.2
Cc1c(C(=O)OCCOc2ccccc2)[nH]c2c1C(=O)CCC2 [MLS000090901]	10.9
O=c1c2c3c(sc2nc2n1N=C(c1cccs1)CS2)CCCC3 [SMR000161302]	> 300
O=C(O)CCn1cc(C=C2C(=O)NC(=S)NC2=O)c(-c2ccccc2)n1 [MLS000707577]	> 300
CCCCOc1ccc(/C=C/C(=O)OCC(=O)N2CC(=O)Nc3ccccc32)cc1OCC [[2-oxidanylidene-2-(3-oxidanylidene-2,4-dihydroquinoxalin-1-yl)ethyl] (E)-3-(4-butoxy-3-ethoxy-phenyl)prop-2-enoate]	> 300
COc1ccc(NC(=O)c2cccc(N3C(=O)c4cccc([N+](=O)[O-])c4C3=O)c2)cc1 [MLS001125857]	> 300
Nc1nc(NCc2ccc(Cl)cc2)nc(NCCO)c1[N+](=O)[O-] [SMR000436738]	13.6
